Measurements as given in patent publication US20210009564A1, “CALPAIN MODULATORS AND THERAPEUTIC USES THEREOF” (BLADE THERAPERTICS, INC., priority 2018, published 2021).
pIC50: −log10 of the molar value. Where a name gives a salt, the structure may show the parent alone.

Tests used:
Human Calpain 1/NS1 = target: T1, Human Calpain 1/NS1 (Homo sapiens, UniProt P07384); assay: Calpain inhibition, continuous fluorescence (FRET substrate) assay, calpain 1; assay type: biochemical; settings: SensoLyte 520 FRET substrate, 25C
T1 sequence (P07384 1-714): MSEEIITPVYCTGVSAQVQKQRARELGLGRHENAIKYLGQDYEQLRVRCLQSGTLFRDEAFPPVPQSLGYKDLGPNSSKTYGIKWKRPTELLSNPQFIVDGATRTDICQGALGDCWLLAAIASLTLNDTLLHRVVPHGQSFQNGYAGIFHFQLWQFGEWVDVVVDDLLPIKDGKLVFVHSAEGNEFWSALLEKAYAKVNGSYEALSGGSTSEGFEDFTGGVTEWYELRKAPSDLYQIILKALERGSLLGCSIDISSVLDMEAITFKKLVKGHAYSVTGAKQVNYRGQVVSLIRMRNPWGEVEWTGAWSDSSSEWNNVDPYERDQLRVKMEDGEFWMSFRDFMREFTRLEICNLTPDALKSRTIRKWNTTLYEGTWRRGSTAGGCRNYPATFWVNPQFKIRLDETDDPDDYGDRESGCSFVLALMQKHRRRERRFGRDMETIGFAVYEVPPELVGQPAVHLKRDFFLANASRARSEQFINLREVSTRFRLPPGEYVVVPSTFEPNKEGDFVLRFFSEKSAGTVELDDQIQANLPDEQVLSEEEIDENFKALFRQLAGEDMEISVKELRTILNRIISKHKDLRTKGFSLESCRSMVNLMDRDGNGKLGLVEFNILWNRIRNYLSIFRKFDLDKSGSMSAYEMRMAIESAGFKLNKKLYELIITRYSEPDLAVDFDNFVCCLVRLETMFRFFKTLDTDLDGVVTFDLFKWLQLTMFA
T1 sequence (P04632 1-268 partner): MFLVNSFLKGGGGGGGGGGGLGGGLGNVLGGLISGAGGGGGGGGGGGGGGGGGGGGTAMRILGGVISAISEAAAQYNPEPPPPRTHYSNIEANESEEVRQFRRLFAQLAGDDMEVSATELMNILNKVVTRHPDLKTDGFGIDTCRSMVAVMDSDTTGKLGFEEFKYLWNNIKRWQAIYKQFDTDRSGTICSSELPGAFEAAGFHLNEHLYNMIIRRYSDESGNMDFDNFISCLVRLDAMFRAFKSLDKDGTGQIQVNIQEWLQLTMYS
Experimental: (§1) Calpain 1, 2, and 9 activity and inhibition thereof was assessed by means of a continuous fluorescence assay. The SensoLyte 520 Calpain substrate (Anaspec Inc) was optimized for detecting calpain activity. This substrate contains an internally quenched 5-FAM/QXLTM 520 FRET pair. Calpains 1, 2, and 9 cleave the FRET substrate into two separate fragments resulting in an increase of 5-FAM fluorescence that is proportional to calpain activity Assays were typically setup in black 384-well plates using automated liquid handling as follows. Calpain assay base buffer typically contains 50 mM Tris, pH 7.5, 100 mM NaCl and 1 mM DTT. Inhibitors were serially diluted in DMSO and used to setup 2× mixtures with calpains in the aforementioned buffer. After incubation at ambient temperature (25C), the reaction was initiated by adding a 2× mix of the fluorescent peptide substrate and CaCl2) (required for in-situ calpain activation) in the same buffer. Reaction progress curve data were typically collected for 10 min using excitation/emission wavelengths of 490 nm/520 nm on SpectraMax i3× or the FLIPR-Tetra plate readers (Molecular Devices Inc). Reaction rates were calculated from progress curve slopes typically over 1-5 min. Dose response curves (rate vs. log inhibitor concentration) were typically fit to a 4-parameter logistic function to extract IC50 values.

Human Calpain 2/NS1 = target: T2, Human Calpain 2/NS1 (Homo sapiens, UniProt P17655); assay: Calpain inhibition, continuous fluorescence (FRET substrate) assay, calpain 2; assay type: biochemical; settings: SensoLyte 520 FRET substrate, 25C
T2 sequence (P17655 1-700): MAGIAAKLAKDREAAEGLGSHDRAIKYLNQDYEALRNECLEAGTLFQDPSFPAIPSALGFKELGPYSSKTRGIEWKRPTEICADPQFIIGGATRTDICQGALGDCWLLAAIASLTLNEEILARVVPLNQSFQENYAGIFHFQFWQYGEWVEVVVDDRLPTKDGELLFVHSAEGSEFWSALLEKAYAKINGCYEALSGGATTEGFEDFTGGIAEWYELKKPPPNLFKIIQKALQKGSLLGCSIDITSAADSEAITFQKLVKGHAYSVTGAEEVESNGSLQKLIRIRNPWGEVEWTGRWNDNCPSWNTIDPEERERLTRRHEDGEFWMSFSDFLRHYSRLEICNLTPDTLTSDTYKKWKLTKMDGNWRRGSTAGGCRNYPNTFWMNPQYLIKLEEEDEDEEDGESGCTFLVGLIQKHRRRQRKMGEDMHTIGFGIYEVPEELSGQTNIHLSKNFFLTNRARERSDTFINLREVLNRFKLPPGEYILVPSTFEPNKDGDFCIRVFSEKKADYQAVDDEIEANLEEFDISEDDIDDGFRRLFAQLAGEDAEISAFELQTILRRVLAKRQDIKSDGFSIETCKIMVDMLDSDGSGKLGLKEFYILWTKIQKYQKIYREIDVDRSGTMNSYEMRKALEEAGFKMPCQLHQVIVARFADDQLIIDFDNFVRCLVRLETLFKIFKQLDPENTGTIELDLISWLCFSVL
T2 sequence (P04632 1-268 partner): T1 sequence (P04632 1-268 partner)
Experimental: as §1

[1] = test system: Calpain activity in SH-SY5Y cells; assay: SH-SY5Y Suc-LLVY-AMC fluorescence assay; assay type: cell-based; settings: Homo sapiens; SH-SY5Y cells, 100 uM Suc-LLVY-AMC; read-out: SH-SY5Y + AMC IC50
Human Calpain 9/NS1 = target: T3, Human Calpain 9/NS1 (Homo sapiens, UniProt O14815); assay: Calpain inhibition, continuous fluorescence (FRET substrate) assay, calpain 9; assay type: biochemical; settings: SensoLyte 520 FRET substrate, 25C
T3 sequence (O14815 1-690): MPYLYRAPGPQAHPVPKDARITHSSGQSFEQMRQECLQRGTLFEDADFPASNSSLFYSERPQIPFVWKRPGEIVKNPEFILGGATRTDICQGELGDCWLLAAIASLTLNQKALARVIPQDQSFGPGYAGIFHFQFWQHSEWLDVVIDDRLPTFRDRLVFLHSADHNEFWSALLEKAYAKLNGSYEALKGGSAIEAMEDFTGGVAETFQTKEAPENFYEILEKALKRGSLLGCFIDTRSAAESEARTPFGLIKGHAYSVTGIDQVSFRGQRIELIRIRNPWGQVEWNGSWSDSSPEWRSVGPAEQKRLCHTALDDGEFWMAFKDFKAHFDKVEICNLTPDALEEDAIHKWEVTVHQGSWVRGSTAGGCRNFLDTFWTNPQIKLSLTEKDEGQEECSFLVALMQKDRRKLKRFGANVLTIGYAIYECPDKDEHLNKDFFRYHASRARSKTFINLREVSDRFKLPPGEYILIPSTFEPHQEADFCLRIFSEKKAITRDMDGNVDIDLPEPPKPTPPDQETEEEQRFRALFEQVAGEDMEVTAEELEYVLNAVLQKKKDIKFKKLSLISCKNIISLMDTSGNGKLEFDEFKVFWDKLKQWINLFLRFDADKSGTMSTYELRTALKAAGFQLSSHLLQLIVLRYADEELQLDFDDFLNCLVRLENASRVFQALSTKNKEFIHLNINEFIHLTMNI
T3 sequence (P04632 1-268 partner): T1 sequence (P04632 1-268 partner)
Experimental: as §1

[2] = test system: Calpain activity in SH-SY5Y cells; assay: SH-SY5Y spectrin breakdown product (SBDP-150) western blot assay; assay type: cell-based; settings: Homo sapiens; SH-SY5Y cells, 25 uM A23187, SBDP-150 western blot; read-out: SH-SY5Y Spectrin IC50

Structure (SMILES) | pIC50 (Human Calpain 1/NS1) | pIC50 (Human Calpain 2/NS1) | pIC50 [1] | pIC50 (Human Calpain 9/NS1) | pIC50 [2]
Cn1cc(C(=O)NC(Cc2ccccc2)C(=O)C(N)=O)c(-c2ccc3cccnc3c2)n1 (stereo not drawn) [Compound 1, N-(4-AMINO-3,4-DIOXO-1-PHENYLBUTAN-2-YL)-1-METHYL-3-(QUINOLIN-7-YL)-1H-PYRAZOLE-4-CARBOXAMIDE] | > 5.52 | > 5.52 | < 4.60 | > 5.52 | < 4.60
Cn1cc(C(=O)NC(Cc2ccccc2)C(=O)C(N)=O)c(N2CCNCC2)n1 (stereo not drawn) [Compound 2, N-(4-AMINO-3,4-DIOXO-1-PHENYLBUTAN-2-YL)-1-METHYL-3-(PIPERAZIN-1-YL)-1H-PYRAZOLE-4-CARBOXAMIDE HYDROCHLORIDE] | < 5.00 | 5.00 to 5.52 | 4.60 to 5.00 | < 5.00 | < 4.60
NC(=O)C(=O)C(Cc1ccccc1)NC(=O)c1nsnc1-c1ccc(F)cc1 (stereo not drawn) [Compound 3, N-(4-AMINO-3,4-DIOXO-1-PHENYLBUTAN-2-YL)-4-(4-FLUOROPHENYL)-1,2,5-THIADIAZOLE-3-CARBOXAMIDE] | > 5.52 | > 5.52 | > 5.00 | > 5.52 | 4.60 to 5.00
NC(=O)C(=O)C(Cc1ccccc1)NC(=O)c1cn(C(F)F)nc1-c1nccc2ccccc12 (stereo not drawn) [Compound 4, N-(4-AMINO-3,4-DIOXO-1-PHENYLBUTAN-2-YL)-1-(DIFLUOROMETHYL)-3-(ISOQUINOLIN-1-YL)-1H-PYRAZOLE-4-CARBOXAMIDE] | > 5.52 | > 5.52 | > 5.00 | > 5.52 | < 4.60
NC(=O)C(=O)C(Cc1ccccc1)NC(=O)c1cnoc1-c1cccc2c1OCO2 (stereo not drawn) [Compound 5, N-(4-AMINO-3,4-DIOXO-1-PHENYLBUTAN-2-YL)-5-(BENZO[d][1,3]DIOXOL-4-YL)ISOXAZOLE-4-CARBOXAMIDE] | > 5.52 | > 5.52 | > 5.00 | > 5.52 | 4.60 to 5.00
Cn1cc(C(=O)NC(Cc2ccccc2)C(=O)C(N)=O)c(-c2cccc3ncsc23)n1 (stereo not drawn) [Compound 6, N-(4-AMINO-3,4-DIOXO-1-PHENYLBUTAN-2-YL)-3-(BENZO[D]THIAZOL-7-YL)-1-METHYL-1H-PYRAZOLE-4-CARBOXAMIDE] | > 5.52 | > 5.52 | > 5.00 | > 5.52 | > 5.00
NC(=O)C(=O)C(Cc1ccccc1)NC(=O)c1cn(C(F)F)nc1-c1cccc2ncsc12 (stereo not drawn) [Compound 7, N-(4-AMINO-3,4-DIOXO-1-PHENYLBUTAN-2-YL)-3-(BENZO[D]THIAZOL-7-YL)-1-(DIFLUOROMETHYL)-1H-PYRAZOLE-4-CARBOXAMIDE] | > 5.52 | > 5.52 | > 5.00 | > 5.52 | > 5.00
NC(=O)C(=O)C(Cc1ccccc1)NC(=O)c1cnoc1-c1cccc2c1OC(F)(F)O2 (stereo not drawn) [Compound 8, N-(4-AMINO-3,4-DIOXO-1-PHENYLBUTAN-2-YL)-5-(2,2-DIFLUOROBENZO[d][1,3]DIOXOL-4-YL)ISOXAZOLE-4-CARBOXAMIDE] | > 5.52 | > 5.52 | < 4.60 | > 5.52 | 4.60 to 5.00
Cn1cc(C(=O)NC(Cc2ccccc2)C(=O)C(N)=O)c(-n2cnc3ccccc32)n1 (stereo not drawn) [Compound 9, N-(4-AMINO-3,4-DIOXO-1-PHENYLBUTAN-2-YL)-3-(1H-BENZO[D]IMIDAZOL-1-YL)-1-METHYL-1H-PYRAZOLE-4-CARBOXAMIDE] | > 5.52 | > 5.52 | < 4.60 | > 5.52 | 4.60 to 5.00
Cn1cc(C(=O)NC(Cc2ccccc2)C(=O)C(N)=O)c(-c2nccc3ccccc23)n1 (stereo not drawn) [Compound 10, N-(4-AMINO-3,4-DIOXO-1-PHENYLBUTAN-2-YL)-3-(ISOQUINOLIN-1-YL)-1-METHYL-1H-PYRAZOLE-4-CARBOXAMIDE] | 5.00 to 5.52 | > 5.52 | < 4.60 | > 5.52 | < 4.60
Cc1cc(C(=O)NC(Cc2ccccc2)C(=O)C(N)=O)n(-c2ncc3ccccc3n2)n1 (stereo not drawn) [Compound 11, N-(4-AMINO-3,4-DIOXO-1-PHENYLBUTAN-2-YL)-3-METHYL-1-(QUINAZOLIN-2-YL)-1H-PYRAZOLE-5-CARBOXAMIDE] | > 5.52 | > 5.52 | > 5.00 | > 5.52 | 4.60 to 5.00
COc1cccc(-c2nn(C)cc2C(=O)NC(Cc2ccccc2)C(=O)C(N)=O)c1OC (stereo not drawn) [Compound 12, N-(4-AMINO-3,4-DIOXO-1-PHENYLBUTAN-2-YL)-3-(2,3-DIMETHOXYPHENYL)-1-METHYL-1H-PYRAZOLE-4-CARBOXAMIDE] | 5.00 to 5.52 | > 5.52 | < 4.60 | > 5.52 | < 4.60
Cn1cc(C(=O)NC(Cc2ccccc2)C(=O)C(N)=O)c(-c2cnc3ccccc3n2)n1 (stereo not drawn) [Compound 13, N-(4-AMINO-3,4-DIOXO-1-PHENYLBUTAN-2-YL)-1-METHYL-3-(QUINOXALIN-2-YL)-1H-PYRAZOLE-4-CARBOXAMIDE] | > 5.52 | > 5.52 | < 4.60 | > 5.52 | < 4.60
Cn1cc2cccc(-c3nn(C(F)F)cc3C(=O)NC(Cc3ccccc3)C(=O)C(N)=O)c2n1 (stereo not drawn) [Compound 77, N-(4-AMINO-3,4-DIOXO-1-PHENYLBUTAN-2-YL)-1-(DIFLUOROMETHYL)-3-(2-METHYL-2H-INDAZOL-7-YL)-1H-PYRAZOLE-4-CARBOXAMIDE] | > 5.52 | > 5.52 | – | > 5.52 | 4.60 to 5.00
